Laboratory results from patent US20120232142A1, “NOVEL USE OF DIMETHYLFUMARATE” (KYUNGPOOK NATIONAL UNIVERSITY INDUSTRY ACADEMIC COOPERATION …, priority 2007, published 2012).
Where a name gives a salt, the structure may show the parent alone.

How the values were obtained:
[1] = test system: vascular smooth muscle cells; assay: Inhibition of PDGF-induced vascular smooth muscle cell proliferation (WST cell counting); type: cell-based, Sprague-Dawley rat; conditions: 1, 2, 5, 10 μM; PDGF 20 ng/ml; 48 hours; OD 450 nm
Method: For culturing vascular smooth muscle cells, vascular smooth muscle cells were isolated from the aorta of Sprague-Dawley rat and were first cultured. Vascular smooth muscle cells were cultured in a culturing apparatus having conditions of 37° C., 5% carbon dioxide until cells are grown up in culture medium containing 20% bovine fetal serum. Cells obtained from the procedure were transferred to a fresh culture dish to culture, and the initial cells subcultured up to 4 to 7 times were used in experiments. First cultured vascular smooth muscle cells were cultured in 96-well culture dish, and when growth reached 70%, they were transferred to a medium containing 0.5% bovine fetal serum, and then cultured for 24 hours and the cells was stood at interphase status. […] The number of viable cells was measured employing WST cell counting kit (WAKO, Japan). A reagent for confirming cell proliferation was treated thereto, reaction was further performed for 4 hours, and then optical density was measured at 450 nm with ELISA reader to investigate the ability of proliferating cells. The results of the experiments were shown by taking an average from values measured in more than three separate experiments.

[2] = test system: neointima; assay: Neointima formation after balloon dilation in rats fed high fat diet (H & E staining); type: in vivo, Sprague-Dawley rats; conditions: 4 weeks
Method: In order to confirm whether dimethyl fumarate inhibits the formation of neointima after balloon dilation, experiments were performed with Sprague-Dawley rats fed with food containing dimethyl fumarate. The rats were bred while maintaining conditions that the temperature of the breeding room was maintained at 22±2° C., and brightness was automatically controlled in 12 hour cycles. Rats were categorized into a normal control group, a negative control group fed with only high fat diet (20% fat, 0.05% cholesterol), and an experiment group fed with food containing 0.5% or 1% dimethyl fumarate together with high fat diet (4 rats per each group), and experiments were progressed while breeding for 4 weeks in separate cages containing one rat per cage. Balloon dilation was performed after breeding rats for 2 weeks before the balloon dilation, and breeding was performed for 2 weeks more while continuing on feeding general diet and dimethyl fumarate diet, and then their aorta were separated and the formation of neointima was confirmed with H & E (hematoxylin and eosin) staining method.

[3] = test system: AMPK; assay: Western blot of AMPK and ACC phosphorylation in vascular smooth muscle cells; type: cell-based, Sprague-Dawley rat; conditions: 5 μM; 1, 2, 3, 6, 12 hours
Method: (§1) For culturing vascular smooth muscle cells, vascular smooth muscle cells were isolated from the aorta of Sprague-Dawley rat and were first cultured. Vascular smooth muscle cells were cultured in a culturing apparatus having conditions of 37° C., 5% carbon dioxide until cells are grown up in culture medium containing 20% bovine fetal serum. Cells obtained from the procedure were transferred to a fresh culture dish to culture, and the initial cells subcultured up to 4 to 7 times were used in experiments.
(§2) First cultured vascular smooth muscle cells were filled in about 80 to 90% of 60 mm tissue culture dish, and the cells were stood in a medium containing 0.5% FBS for 24 hours to render the cells to be interphase status. […]
(§3) Whole proteins were separated from vascular smooth muscle cells of each group by employing RIPA buffer solution (50 mM Tris-HCl, 150 mM NaCl, 5 mM EDTA, 1% NP-40, 1 mM PMSF, 1 mM DTT, 1 mg/ml protease inhibitor). Separated proteins of each sample were quantitatively analyzed, 25 mg of proteins were mixed with sample buffer solution, the mixture was boiled for 5 minutes and then cooled, electrophoresis was performed for the resulting product in sodium dodecyl sulfate polyacrylamide gel to separate depending on size, then the product was transferred to a PVDF membrane, and then reacted with pAMPK or pACC antibody to confirm phosphorylation thereof. […]

[4] = test system: p53 and p21; assay: Western blot of p53 and p21 expression in vascular smooth muscle cells; type: cell-based, Sprague-Dawley rat; conditions: 5 μM; 1, 2, 3, 6, 12 hours
Method: as §1, §2
as §3, with “mM Tris HCl,” for “mM Tris-HCl,”, “25 μg” for “25 mg”, “with p53” for “with pAMPK”, “or p21” for “or pACC”, “confirm the expression” for “confirm phosphorylation”

[5] = test system: pRb and CDK; assay: Western blot of Rb phosphorylation and CDK expression in vascular smooth muscle cells with PDGF; type: cell-based, Sprague-Dawley rat
Method: as §1
First cultured vascular smooth muscle cells were filled in about 80 to 90% of 60 mm tissue culture dish, and the cells were stood in a medium containing 0.5% FBS for 24 hours to render the cells to be interphase status. The group not treated with dimethyl fumarate was defined as a control, and experimental groups were divided into 3 groups treated with 5 μM dimethyl fumarate for 6, 12 and 24 hours, respectively, with or without PDGF. […] Separated proteins of each sample were quantitatively analyzed, 25 μg of proteins were mixed with sample buffer solution, the mixture was boiled for 5 minutes and then cooled, electrophoresis was performed for the resulting product in sodium dodecyl sulfate polyacrylamide gel to separate depending on size, then the product was transferred to a PVDF membrane, and then reacted with an antibody against pRb or Cyclin. […]

[6] = test system: vascular smooth muscle cells; assay: Cell cycle analysis by FACS (PI staining) of vascular smooth muscle cells; type: cell-based, Sprague-Dawley rat; conditions: 5 μM pretreated 2 hours; growth factor and insulin 24 hours; stimulated without drug 8.7%
Method: For culturing vascular smooth muscle cells, vascular smooth muscle cells were isolated from the aorta of Sprague-Dawley rat and were first cultured. Vascular smooth muscle cells were cultured in a culturing apparatus having conditions of 37° C., 5% carbon dioxide until cells are grown up in culture medium containing 20% bovine fetal serum. Cells obtained from the procedure were transferred to a fresh culture dish to culture, and the initial cells subcultured up to 4 to 7 times were used in experiments. Vascular smooth muscle cells were analyzed for cell cycle employing FACS in order to confirm the effect of dimethyl fumarate on cell cycle. 5 μM dimethyl fumarate were pretreated for 2 hours in the vascular smooth muscle cells cultured in a medium containing 0.5% bovine fetal serum for 24 hours. Cells were treated with a growth factor and insulin to induce cells into replication phase, and reaction was performed for 24 hours. Then cells were collected and immobilized, and then their nucleuses were stained with propidium iodide (PI), and cell cycle was analyzed by employing FACS. Cell cycle was indicated as % by measuring 10,000 cells per each sample.

## COC(=O)/C=C/C(=O)OC [dimethyl fumarate]
[1]
  cell proliferation increased by platelet derived growth factor: inhibited as the concentration of dimethyl fumarate was increased
[2]; food containing 0.5% dimethyl fumarate with high fat diet
  formation of neointima after balloon dilation: certainly decreased
[2]; food containing 1% dimethyl fumarate with high fat diet
  formation of neointima after balloon dilation: certainly decreased
[3]
  activity (phosphorylation) of AMPK: initially increased
  phosphorylation of ACC: continuously increased
[4]
  expression of p21: increased
  expression of p53: increased
[5]; 5 μM pretreated 2 hours, then PDGF
  expression of CDK: more inhibited
[5]; 5 μM, 6, 12 and 24 hours, with or without PDGF
  phosphorylation of Rb promoted by a growth factor or CDK: inhibits
[6]
  cells in replication phase status: 3.4%
